Experimental findings from ChEMBL document CHEMBL6109071, “Chemical modification for improving drug-like molecular properties of climacostol, a natural resorcinolic lipid” (Bioorg Med Chem, 2025) are described below.

Data set [1] relates to Blepharisma japonicum. As to the kind of experiment: Cytotoxicity against Blepharisma japonicum R1072 assessed as reduction in viability measured after 1 hr. Type of data set: functional.
For data set [2], the system named is Euplotes aediculatus. As to the kind of experiment: Cytotoxicity against Euplotes aediculatus clone EA-III assessed as reduction in viability measured after 1 hr. Type of data set: functional.
Data set [3] relates to Paramecium multimicronucleatum. Description: Cytotoxicity against Paramecium multimicronucleatum clone TL-2 assessed as reduction in viability measured after 1 hr. Type of data set: functional.
Data set [4] concerns Paramecium tetraurelia. Description: Cytotoxicity against Paramecium tetraurelia stock 51 assessed as reduction in viability measured after 1 hr. Type of data set: functional.
Data set [5] concerns Spirostomum ambiguum. As to the kind of experiment: Cytotoxicity against Spirostomum ambiguum stock Pol-5 assessed as reduction in viability measured after 1 hr. Type of data set: functional.
For data set [6], the system named is Spirostomum teres. Description: Cytotoxicity against Spirostomum teres stock Pol-1 assessed as reduction in viability measured after 1 hr. Type of data set: functional.
Data set [7] deals with Stentor polymorphus. Description: Cytotoxicity against Stentor polymorphus stock GF-1 assessed as reduction in viability measured after 1 hr. Type of data set: functional.
Data set [8] relates to Blepharisma japonicum. As to the kind of experiment: Cytotoxicity against Blepharisma japonicum R1072 assessed as reduction in viability measured after 24 hrs. Type of data set: functional.
The test system of data set [9] is Euplotes aediculatus. As to the kind of experiment: Cytotoxicity against Euplotes aediculatus clone EA-III assessed as reduction in viability measured after 24 hrs. Type of data set: functional.
Data set [10] relates to Paramecium multimicronucleatum. As to the kind of experiment: Cytotoxicity against Paramecium multimicronucleatum clone TL-2 assessed as reduction in viability measured after 24 hrs. Type of data set: functional.
The subject of data set [11] is Paramecium tetraurelia. As to the kind of experiment: Cytotoxicity against Paramecium tetraurelia stock 51 assessed as reduction in viability measured after 24 hrs. Type of data set: functional.
The subject of data set [12] is Spirostomum teres. Description: Cytotoxicity against Spirostomum teres stock Pol-1 assessed as reduction in viability measured after 24 hrs. Type of data set: functional.
The test system of data set [13] is Stentor polymorphus. Description: Cytotoxicity against Stentor polymorphus stock GF-1 assessed as reduction in viability measured after 24 hrs. Type of data set: functional.
Data set [14] in a line: Toxicity in Drosophila melanogaster Oregon-R assessed as change in larvae development by measuring reduction in developed third instar larvae at 100 ug/ml administered through feeding measured twice daily on day 8 to 9 post-treatment relative to control. The arrangement: scale not given: the % may be the effect or the level left. Conditions: po, at 100 µg/mL, time 8-9 day.

The nature of data set [15]: Toxicity in Drosophila melanogaster Oregon-R assessed as DNA fragmentation in digestive tract of third instar larvae at 100 ug/ml administered through feeding measured after day 8 to 9 by TUNEL/DAPI staining based confocal microscopy. Particulars: po, time 8-9 day, dose 100 µg/ml.
Data set [16] can be described thus: Toxicity in Drosophila melanogaster Oregon-R assessed as increase in cleaved caspase-3 in the cytoplasm of midgut cells of third instar larvae at 100 ug/ml administered through feeding measured after day 8 to 9 by DAPI immunostaining based confocal microscopy. Type of data set: tissue-based. Particulars: po, time 8-9 day, dose 100 µg/ml.
Data set [17] relates to SH-SY5Y. As to the kind of experiment: Cytotoxicity against human SH-SY5Y cells assessed as reduction in cell viability measured after 24 hrs by MTT assay. Type of data set: functional, cell-based.
For data set [18], the system named is SH-SY5Y. As to the kind of experiment: Cytotoxicity against human SH-SY5Y cells assessed as cell death at 10 ug/ml measured after 24 hrs by MTT assay relative to control. Type of data set: functional.
The test system of data set [19] is SH-SY5Y. Description: Cytotoxicity against human SH-SY5Y cells assessed as reduction in cell viability at 30 ug/ml measured after 3 hrs by MTT assay relative to control. Type of data set: functional.
For data set [20], the system named is SH-SY5Y. As to the kind of experiment: Induction of apoptosis in human SH-SY5Y cells assessed as increase in caspase-3 expression at 10 to 30 ug/ml measured after 9 hrs by immunostaining based confocal microscopy. Type of data set: functional, cell-based. Conditions: dose 10-30 µg/ml.
Data set [21] deals with SH-SY5Y. Description: Induction of apoptosis in human SH-SY5Y cells assessed as cytoplasmic shrinkage at 10 to 30 ug/ml measured after 9 hrs by DAPI/phalloidin staining based confocal microscopy. Type of data set: functional, cell-based. Conditions: dose 10-30 µg/ml.
For data set [22], the system named is SH-SY5Y. Description: Induction of apoptosis in human SH-SY5Y cells assessed as chromatin condensation at 10 to 30 ug/ml measured after 9 hrs by DAPI/phalloidin staining based confocal microscopy. Conditions: dose 10-30 µg/ml. Type of data set: functional, cell-based.
The subject of data set [23] is SH-SY5Y. As to the kind of experiment: Induction of apoptosis in human SH-SY5Y cells assessed as altered roundness of nuclear area at 10 to 30 ug/ml measured after 9 hrs by DAPI/phalloidin staining based confocal microscopy. Type of data set: functional, cell-based. Particulars: dose 10-30 µg/ml.
Data set [24] deals with SH-SY5Y. As to the kind of experiment: Induction of apoptosis in human SH-SY5Y cells assessed as altered morphology of nuclear area at 10 to 30 ug/ml measured after 9 hrs by DAPI/phalloidin staining based confocal microscopy. Type of data set: functional, cell-based. Conditions: dose 10-30 µg/ml.
The subject of data set [25] is Euplotes aediculatus. As to the kind of experiment: Potency index, ratio of climacostol LC50 to test compound LC50 for cytotoxicity against Euplotes aediculatus clone EA-III. Type of data set: functional.
In data set [26] the test system is Paramecium multimicronucleatum. As to the kind of experiment: Potency index, ratio of climacostol LC50 to test compound LC50 for cytotoxicity against Paramecium multimicronucleatum clone TL-2. Type of data set: functional.
The subject of data set [27] is Paramecium tetraurelia. Description: Potency index, ratio of climacostol LC50 to test compound LC50 for cytotoxicity against Paramecium tetraurelia stock 51. Type of data set: functional.
The test system of data set [28] is SH-SY5Y. As to the kind of experiment: Cytotoxicity against human SH-SY5Y cells assessed as cell death at 30 ug/ml measured after 24 hrs by MTT assay relative to control. Type of data set: functional.

Each structure is given as a SMILES string. Converted amounts (≈) assume the structure as drawn. The source made the active and inactive calls. The rule behind the calls is not given here.

As for `CCCCCC/C=C\Cc1cc(O)cc(O)c1O`, the LC50 in data set [1] was 3.97 µg/mL (≈ 15.9 µM); in data set [2], 0.7 µg/mL (≈ 2.8 µM); in [3], 0.58 µg/mL (≈ 2.32 µM); in [4], 0.29 µg/mL (≈ 1.16 µM); in data set [5], 3.73 µg/mL (≈ 14.9 µM); in data set [6], 2.24 µg/mL (≈ 8.95 µM). Besides, the LC50 amounted to 1.24 µg/mL (≈ 4.95 µM) in data set [7]; 2.07 µg/mL (≈ 8.27 µM) in data set [8]; 0.23 µg/mL (≈ 0.919 µM) in data set [9]; 0.13 µg/mL (≈ 0.519 µM) in [10]; 0.21 µg/mL (≈ 0.839 µM) in [11]; 1.86 µg/mL (≈ 7.43 µM) in data set [12]. In [13], the LC50 was 0.54 µg/mL (≈ 2.16 µM). Also, the Activity was 23% in data set [14]; “Toxic” in [15]; “Toxic” in data set [16]; “Dose-dependent-effect” in data set [17]; 90% in [19] (dose 30 µg/ml). Also, the IC50 in [17] came to 4.72 µg/mL (≈ 18.9 µM). Besides, the Emax at 10 µg/mL in data set [18] was 90%. The result in [20], in data set [21], in data set [22], in data set [23] and in [24] was Active. Also, the RatioLC50 in data set [25], in [26] and in data set [27] was 2.5 each time.
As to `CCCCCC/C=C\Cc1cc(O)cc(O)c1`, the LC50 in [1] is 3.17 µg/mL (≈ 13.5 µM); in data set [2] it was 1.7 µg/mL (≈ 7.25 µM); in [3] it was 1.64 µg/mL (≈ 7 µM); in data set [4], 1.43 µg/mL (≈ 6.1 µM); in data set [5], 2.03 µg/mL (≈ 8.66 µM); in data set [6], 2.04 µg/mL (≈ 8.71 µM). In addition, the LC50 came out at 1.21 µg/mL (≈ 5.16 µM) in [7]; 2.04 µg/mL (≈ 8.71 µM) in data set [8]; 0.83 µg/mL (≈ 3.54 µM) in [9]; 0.88 µg/mL (≈ 3.76 µM) in data set [10]; 0.9 µg/mL (≈ 3.84 µM) in [11]; 1.68 µg/mL (≈ 7.17 µM) in data set [12]. Besides, in data set [13], the LC50 came to 0.94 µg/mL (≈ 4.01 µM). Besides, the Activity entry in data set [17] was “Dose-dependent-effect”. For the same molecule, the IC50 in [17] was found to be 12.9 µg/mL (≈ 54.9 µM). Further, the Emax at 30 µg/mL in data set [28] was 90%. In data set [19] (dose 30.0 µg/ml), the outcome was inactive.
